According to patent publication US20220409619A1, “INHIBITORS OF HUMAN IMMUNODEFICIENCY VIRUS REPLICATION” (VIIV HEALTHCARE UK (No. 5) LIMITED, priority 2019, published 2022):
pEC50: −log10 of the molar value. Where two headings read alike, the source gives them in different places.

What was measured:
Type in all cases: cell-based
[1] = test system: uninfected MT2 cells; assay: Compound cytotoxicity, XTT-based colorimetric assay; settings: day 4, XTT-based colorimetric assay
In short: (§1)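 Run under the antiviral-assay protocol but without virus. Viability was read on day 4 and CC50 values were derived from the readout.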

[2] = test system: recombinant NL4-3 virus (nef section replaced with Renilla luciferase gene) in MT-2 cells; assay: HIV cell culture assay (antiviral activity, luciferase readout)
In short: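 MT-2 cells were infected for 4-5 days with 293T-derived NL4-3 Renilla-luciferase reporter virus in the presence of serial compound dilutions. Luciferase was read with EnduRen live-cell substrate. EC50 was fitted with the median effect equation.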

[3] = Compound cytotoxicity, XTT-based colorimetric assay; settings: human; uninfected MT2 cells, day 4, XTT-based colorimetric assay
In short: as §1

Row | Structure (SMILES) | CC50 [1] | pEC50 ([2]; MT-2 cells infected for 4-5 days with recombinant NL4-3 Renilla luciferase virus, luciferase activity, read-out: EC50) | CC50 at 4 days [3] | pEC50 ([2]; Renilla, NL43)
1 | Cn1nc(NS(C)(=O)=O)c2c(Cl)ccc(-n3c([C@H](Cc4cc(F)cc(F)c4)NC(=O)Cn4nc(C(F)F)c5c4C(F)(F)[C@@H]4C[C@H]54)nc(-c4ccc(F)cc4F)cc3=O)c21 [Example 3, N-((S)-1-((1P)-1-(4-chloro-1-methyl-3-(methylsulfonamido)-1H-indazol-7-yl)-4-(2,4-difluorophenyl)-6-oxo-1,6-dihydropyrimidin-2-yl)-2-(3,5-difluorophenyl)ethyl)-2-((3bS,4aR)-3-(difluoromethyl)-5,5-difluoro-3b,4,4a,5-tetrahydro-1H-cyclopropa[3,4]cyclopenta[1,2-c]pyrazol-1-yl)acetamide] | > 100 nM | 8.77 |  | 
2 | Cn1nc(NS(C)(=O)=O)c2c(Cl)ccc(-n3c([C@H](Cc4cc(F)cc(F)c4)NC(=O)Cn4nc(C(F)F)c5c4C(F)(F)[C@@H]4C[C@H]54)nc(-c4cccc(C(F)(F)F)n4)cc3=O)c21 (atropisomer, axis not shown; (P)) [Example 7, N-((S)-1-((1P)-1-(4-chloro-1-methyl-3-(methylsulfonamido)-1H-indazol-7-yl)-6-oxo-4-(6-(trifluoromethyl)pyridin-2-yl)-1,6-dihydropyrimidin-2-yl)-2-(3,5-difluorophenyl)ethyl)-2-((3bS,4aR)-3-(difluoromethyl)-5,5-difluoro-3b,4,4a,5-tetrahydro-1H-cyclopropa[3,4]cyclopenta[1,2-c]pyrazol-1-yl)acetamide] |  |  | > 100 nM | 9.28
3 | CC(C)(C#Cc1cc(=O)n(-c2ccc(Cl)c3c(NS(=O)(=O)C4CC4)nn(CC(F)F)c23)c([C@H](Cc2cc(F)cc(F)c2)NC(=O)Cn2nc(C(F)(F)F)c3c2C(F)(F)[C@@H]2C[C@H]32)n1)S(C)(=O)=O (atropisomer, axis not shown; (P)) [Example 36, N-((S)-1-((1P)-1-(4-chloro-3-(cyclopropanesulfonamido)-1-(2,2-difluoroethyl)-1H-indazol-7-yl)-4-(3-methyl-3-(methylsulfonyl)but-1-yn-1-yl)-6-oxo-1,6-dihydropyrimidin-2-yl)-2-(3,5-difluorophenyl)ethyl)-2-((3bS,4aR)-5,5-difluoro-3-(trifluoromethyl)-3b,4,4a,5-tetrahydro-1H-cyclopropa[3,4]cyclopenta[1,2-c]pyrazol-1-yl)acetamide] |  |  | > 100 nM | 9.80
4 | Cn1nc(NS(C)(=O)=O)c2c(Cl)ccc(-n3c([C@H](Cc4cc(F)cc(F)c4)NC(=O)Cn4nc(C(F)F)c5c4C(F)(F)[C@@H]4C[C@H]54)nc(-c4csc(S(C)(=O)=O)n4)cc3=O)c21 (atropisomer, axis not shown; (P)) [Example 17, N-((S)-1-((1P)-1-(4-chloro-1-methyl-3-(methylsulfonamido)-1H-indazol-7-yl)-4-(2-(methylsulfonyl)thiazol-4-yl)-6-oxo-1,6-dihydropyrimidin-2-yl)-2-(3,5-difluorophenyl)ethyl)-2-((3bS,4aR)-3-(difluoromethyl)-5,5-difluoro-3b,4,4a,5-tetrahydro-1H-cyclopropa[3,4]cyclopenta[1,2-c]pyrazol-1-yl)acetamide] |  |  | > 100 nM | 9.09
